PubChem BioAssay (NCI)
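Dose response: 5 concentrations. Exposure: 48 h. Format: 96-well plates. Endpoint: linear interpolation; highest concentration if not reached. Abbreviation: GI50, concentration required for 50% inhibition of growth. At the TGI there is no net growth.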

Assays:
Assay in all cases: inhibition of tumour cell growth, NCI panel, 48 h
786-0 renal = system: 786-0 renal
CCRF-CEM leukemia = system: CCRF-CEM leukemia
SK-OV-3 ovarian = system: SK-OV-3 ovarian
NCI-H23 lung = system: NCI-H23 lung
UACC-62 melanoma = system: UACC-62 melanoma
K-562 leukemia = system: K-562 leukemia
EKVX NSCLC = system: EKVX NSCLC
NCI-H522 lung = system: NCI-H522 lung
TK-10 renal = system: TK-10 renal
SF-295 CNS = system: SF-295 CNS
HOP-92 NSCLC = system: HOP-92 NSCLC
NCI-H460 lung = system: NCI-H460 lung
MALME-3M melanoma = system: MALME-3M melanoma
RPMI-8226 leukemia = system: RPMI-8226 leukemia
SF-268 CNS = system: SF-268 CNS
SF-539 CNS = system: SF-539 CNS
PC-3 prostate = system: PC-3 prostate
COLO 205 colon = system: COLO 205 colon
SK-MEL-2 melanoma = system: SK-MEL-2 melanoma
DU-145 prostate = system: DU-145 prostate
HCT-116 colon = system: HCT-116 colon
LOX IMVI melanoma = system: LOX IMVI melanoma
BT-549 breast = system: BT-549 breast
UO-31 renal = system: UO-31 renal
SNB-19 CNS = system: SNB-19 CNS
HOP-62 NSCLC = system: HOP-62 NSCLC
HL-60(TB) leukemia = system: HL-60(TB) leukemia
KM12 colon = system: KM12 colon
A549 NSCLC = system: A549 NSCLC
HS 578T breast = system: HS 578T breast
A498 renal = system: A498 renal
ACHN renal = system: ACHN renal
OVCAR-4 ovarian = system: OVCAR-4 ovarian
MDA-MB-435 = system: MDA-MB-435
SW-620 colon = system: SW-620 colon
SK-MEL-28 melanoma = system: SK-MEL-28 melanoma
OVCAR-8 ovarian = system: OVCAR-8 ovarian
HCT-15 colon = system: HCT-15 colon
SK-MEL-5 melanoma = system: SK-MEL-5 melanoma
MCF7 breast = system: MCF7 breast
SN12C renal = system: SN12C renal
M14 melanoma = system: M14 melanoma
OVCAR-5 ovarian = system: OVCAR-5 ovarian
U251 CNS = system: U251 CNS
NCI-H226 lung = system: NCI-H226 lung
MOLT-4 leukemia = system: MOLT-4 leukemia
UACC-257 melanoma = system: UACC-257 melanoma
T-47D breast = system: T-47D breast
IGROV1 ovarian = system: IGROV1 ovarian
RXF 393 renal = system: RXF 393 renal
CAKI-1 renal = system: CAKI-1 renal
NCI/ADR-RES ovarian = system: NCI/ADR-RES ovarian
SNB-75 CNS = system: SNB-75 CNS
HT29 colon = system: HT29 colon
MDA-MB-231 breast = system: MDA-MB-231 breast
SR leukemia = system: SR leukemia
OVCAR-3 ovarian = system: OVCAR-3 ovarian

Structure (SMILES): O=c1oc2c3ccc4cnccc4c3[nH]c2c2ccccc12
- GI50 (786-0 renal): 4.47 µM
- TGI (786-0 renal): 17.6 µM
- GI50 (CCRF-CEM leukemia): 3.94 µM
- TGI (CCRF-CEM leukemia): 11.6 µM
- GI50 (SK-OV-3 ovarian): > 100 µM
- TGI (SK-OV-3 ovarian): > 100 µM
- GI50 (NCI-H23 lung): 23.3 µM
- TGI (NCI-H23 lung): 80.1 µM
- GI50 (UACC-62 melanoma): 17.6 µM
- TGI (UACC-62 melanoma): 42.1 µM
- GI50 (K-562 leukemia): 27.7 µM
- TGI (K-562 leukemia): > 100 µM
- GI50 (EKVX NSCLC): 76.5 µM
- TGI (EKVX NSCLC): > 100 µM
- GI50 (NCI-H522 lung): 11.8 µM
- TGI (NCI-H522 lung): 77.1 µM
- GI50 (TK-10 renal): 43.8 µM
- TGI (TK-10 renal): > 100 µM
- GI50 (SF-295 CNS): 41.7 µM
- TGI (SF-295 CNS): > 100 µM
- GI50 (HOP-92 NSCLC): 10.2 µM
- TGI (HOP-92 NSCLC): 35 µM
- GI50 (NCI-H460 lung): 9.35 µM
- TGI (NCI-H460 lung): 30.2 µM
- GI50 (MALME-3M melanoma): 18.9 µM
- TGI (MALME-3M melanoma): 45.1 µM
- GI50 (RPMI-8226 leukemia): 7.94 µM
- TGI (RPMI-8226 leukemia): 33.4 µM
- GI50 (SF-268 CNS): 13.1 µM
- TGI (SF-268 CNS): > 100 µM
- GI50 (SF-539 CNS): 11.5 µM
- TGI (SF-539 CNS): 25.2 µM
- GI50 (PC-3 prostate): 55.8 µM
- TGI (PC-3 prostate): > 100 µM
- GI50 (COLO 205 colon): 4.24 µM
- TGI (COLO 205 colon): 17.4 µM
- GI50 (SK-MEL-2 melanoma): 18.8 µM
- TGI (SK-MEL-2 melanoma): 54.8 µM
- GI50 (DU-145 prostate): 12.3 µM
- TGI (DU-145 prostate): 32.9 µM
- GI50 (HCT-116 colon): 1.58 µM
- TGI (HCT-116 colon): 2.99 µM
- GI50 (LOX IMVI melanoma): 12.1 µM
- TGI (LOX IMVI melanoma): 28.2 µM
- GI50 (BT-549 breast): 14.2 µM
- TGI (BT-549 breast): 29.2 µM
- GI50 (UO-31 renal): 22.9 µM
- TGI (UO-31 renal): > 100 µM
- GI50 (SNB-19 CNS): 18.5 µM
- TGI (SNB-19 CNS): > 100 µM
- GI50 (HOP-62 NSCLC): 3 µM
- TGI (HOP-62 NSCLC): 8.3 µM
- GI50 (HL-60(TB) leukemia): 17.3 µM
- TGI (HL-60(TB) leukemia): > 100 µM
- GI50 (KM12 colon): 13.1 µM
- TGI (KM12 colon): > 100 µM
- GI50 (A549 NSCLC): 3.96 µM
- TGI (A549 NSCLC): > 100 µM
- GI50 (HS 578T breast): 21.3 µM
- TGI (HS 578T breast): > 100 µM
- GI50 (A498 renal): 95.5 µM
- TGI (A498 renal): > 100 µM
- GI50 (ACHN renal): 31.5 µM
- TGI (ACHN renal): > 100 µM
- GI50 (OVCAR-4 ovarian): 15.5 µM
- TGI (OVCAR-4 ovarian): 31 µM
- GI50 (MDA-MB-435): 18.1 µM
- TGI (MDA-MB-435): 34.2 µM
- GI50 (SW-620 colon): 4.58 µM
- TGI (SW-620 colon): 23.5 µM
- GI50 (SK-MEL-28 melanoma): 16.4 µM
- TGI (SK-MEL-28 melanoma): 32 µM
- GI50 (OVCAR-8 ovarian): 16.1 µM
- TGI (OVCAR-8 ovarian): > 100 µM
- GI50 (HCT-15 colon): 30.7 µM
- TGI (HCT-15 colon): > 100 µM
- GI50 (SK-MEL-5 melanoma): 8.01 µM
- TGI (SK-MEL-5 melanoma): 22.2 µM
- GI50 (MCF7 breast): 2.24 µM
- TGI (MCF7 breast): 6.17 µM
- GI50 (SN12C renal): 19.3 µM
- TGI (SN12C renal): 85.5 µM
- GI50 (M14 melanoma): 13.4 µM
- TGI (M14 melanoma): 26.6 µM
- GI50 (OVCAR-5 ovarian): 16.9 µM
- TGI (OVCAR-5 ovarian): 40.9 µM
- GI50 (U251 CNS): 7.57 µM
- TGI (U251 CNS): 20.8 µM
- GI50 (NCI-H226 lung): 26.6 µM
- TGI (NCI-H226 lung): 72.6 µM
- GI50 (MOLT-4 leukemia): 4.83 µM
- TGI (MOLT-4 leukemia): 25.4 µM
- GI50 (UACC-257 melanoma): 20.3 µM
- TGI (UACC-257 melanoma): 57.6 µM
- GI50 (T-47D breast): 9.78 µM
- TGI (T-47D breast): > 100 µM
- GI50 (IGROV1 ovarian): 12.7 µM
- TGI (IGROV1 ovarian): > 100 µM
- GI50 (RXF 393 renal): 5.72 µM
- TGI (RXF 393 renal): 19.4 µM
- GI50 (CAKI-1 renal): 47 µM
- TGI (CAKI-1 renal): > 100 µM
- GI50 (NCI/ADR-RES ovarian): 66.4 µM
- TGI (NCI/ADR-RES ovarian): > 100 µM
- GI50 (SNB-75 CNS): 20.6 µM
- TGI (SNB-75 CNS): 65.6 µM
- GI50 (HT29 colon): 10.5 µM
- TGI (HT29 colon): 37.2 µM
- GI50 (MDA-MB-231 breast): 16.9 µM
- TGI (MDA-MB-231 breast): 38.5 µM
- GI50 (SR leukemia): 1.78 µM
- TGI (SR leukemia): 4.19 µM
- GI50 (OVCAR-3 ovarian): 18.3 µM
- TGI (OVCAR-3 ovarian): 32.4 µM
